Measurements published in ChEMBL document CHEMBL5291721, “A preclinical secondary pharmacology resource illuminates target-adverse drug reaction associations of marketed drugs” (Nat Commun, 2023).

Key:
[1] = molecular target: T1, Alpha-1A adrenergic receptor (Homo sapiens, UniProt P35348)
T1 sequence (P35348 whole entry): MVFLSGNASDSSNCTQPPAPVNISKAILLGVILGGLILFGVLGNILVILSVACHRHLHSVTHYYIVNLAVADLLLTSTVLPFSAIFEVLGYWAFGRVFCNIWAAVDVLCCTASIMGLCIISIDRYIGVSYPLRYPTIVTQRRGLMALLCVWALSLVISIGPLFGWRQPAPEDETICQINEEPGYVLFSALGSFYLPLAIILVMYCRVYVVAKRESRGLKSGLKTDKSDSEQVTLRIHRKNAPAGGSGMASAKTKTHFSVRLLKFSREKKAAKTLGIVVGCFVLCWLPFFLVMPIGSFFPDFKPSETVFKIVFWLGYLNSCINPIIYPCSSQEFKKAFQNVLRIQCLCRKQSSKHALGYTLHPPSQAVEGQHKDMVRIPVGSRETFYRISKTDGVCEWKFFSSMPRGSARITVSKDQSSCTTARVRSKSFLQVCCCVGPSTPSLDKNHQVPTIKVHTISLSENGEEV

[2] = molecular target: T2, Muscarinic acetylcholine receptor M1 (Homo sapiens, UniProt P11229)
T2 sequence (P11229 whole entry): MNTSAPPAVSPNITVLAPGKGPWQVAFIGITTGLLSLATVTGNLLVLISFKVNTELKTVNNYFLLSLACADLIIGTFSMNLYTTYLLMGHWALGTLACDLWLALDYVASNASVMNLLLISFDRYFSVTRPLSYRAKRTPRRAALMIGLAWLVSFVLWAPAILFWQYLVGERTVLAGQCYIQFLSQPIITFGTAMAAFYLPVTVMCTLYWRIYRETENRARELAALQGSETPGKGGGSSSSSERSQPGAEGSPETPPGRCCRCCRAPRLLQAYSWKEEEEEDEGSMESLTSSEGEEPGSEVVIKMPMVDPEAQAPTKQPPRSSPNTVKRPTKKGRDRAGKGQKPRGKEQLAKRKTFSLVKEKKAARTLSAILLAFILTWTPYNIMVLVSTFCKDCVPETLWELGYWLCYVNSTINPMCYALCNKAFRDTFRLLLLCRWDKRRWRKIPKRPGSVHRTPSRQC

[3] = molecular target: T3, Oxysterols receptor LXR-beta (Homo sapiens, UniProt P55055); format: functional
T3 sequence (P55055 whole entry): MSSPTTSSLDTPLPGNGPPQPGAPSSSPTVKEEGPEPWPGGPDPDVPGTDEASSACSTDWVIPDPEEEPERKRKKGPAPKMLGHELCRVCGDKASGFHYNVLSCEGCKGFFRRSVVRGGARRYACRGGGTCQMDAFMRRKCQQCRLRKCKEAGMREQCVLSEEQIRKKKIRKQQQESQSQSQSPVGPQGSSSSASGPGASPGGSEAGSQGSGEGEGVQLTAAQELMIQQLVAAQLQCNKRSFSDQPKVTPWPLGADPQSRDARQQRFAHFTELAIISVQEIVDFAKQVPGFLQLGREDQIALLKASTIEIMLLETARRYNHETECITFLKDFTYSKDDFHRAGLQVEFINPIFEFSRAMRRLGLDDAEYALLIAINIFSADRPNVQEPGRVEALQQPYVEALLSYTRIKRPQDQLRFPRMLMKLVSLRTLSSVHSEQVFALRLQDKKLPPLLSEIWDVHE

Bile acid receptor [4] = molecular target: T4, Bile acid receptor (Homo sapiens, UniProt Q96RI1); format: functional
T4 sequence (Q96RI1 whole entry): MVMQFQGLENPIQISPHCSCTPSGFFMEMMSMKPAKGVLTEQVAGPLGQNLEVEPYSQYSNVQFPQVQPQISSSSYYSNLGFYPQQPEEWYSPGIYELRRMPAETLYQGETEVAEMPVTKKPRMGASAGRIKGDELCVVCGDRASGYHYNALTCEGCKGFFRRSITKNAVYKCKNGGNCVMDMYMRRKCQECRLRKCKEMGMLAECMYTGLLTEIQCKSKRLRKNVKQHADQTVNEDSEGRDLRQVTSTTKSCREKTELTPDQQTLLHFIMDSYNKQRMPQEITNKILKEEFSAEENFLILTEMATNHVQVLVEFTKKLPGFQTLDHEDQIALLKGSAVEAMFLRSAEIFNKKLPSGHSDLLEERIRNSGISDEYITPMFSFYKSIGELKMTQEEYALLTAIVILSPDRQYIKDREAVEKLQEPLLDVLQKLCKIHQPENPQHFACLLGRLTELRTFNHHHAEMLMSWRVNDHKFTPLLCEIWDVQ

Bile acid receptor [5] = molecular target: T4, Bile acid receptor; format: functional; remark: listed apart in the source
[6] = molecular target: T5, Retinoic acid receptor beta (Homo sapiens, UniProt P10826); format: functional, cell-based
T5 sequence (P10826 whole entry): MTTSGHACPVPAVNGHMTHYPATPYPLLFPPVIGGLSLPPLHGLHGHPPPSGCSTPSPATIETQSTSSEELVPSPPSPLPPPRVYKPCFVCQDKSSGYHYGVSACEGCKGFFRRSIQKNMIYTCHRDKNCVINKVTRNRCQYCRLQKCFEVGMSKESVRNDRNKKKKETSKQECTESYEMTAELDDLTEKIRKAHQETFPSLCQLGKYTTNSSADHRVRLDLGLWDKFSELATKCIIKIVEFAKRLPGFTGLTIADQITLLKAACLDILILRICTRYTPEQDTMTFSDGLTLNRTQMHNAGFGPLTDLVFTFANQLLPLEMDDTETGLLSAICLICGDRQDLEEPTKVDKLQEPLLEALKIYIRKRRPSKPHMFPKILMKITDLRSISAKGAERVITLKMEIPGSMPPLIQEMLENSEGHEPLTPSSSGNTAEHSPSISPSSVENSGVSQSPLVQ

[7] = molecular target: T5, Retinoic acid receptor beta; format: functional, cell-based; remark: listed apart in the source
[8] = molecular target: Gamma-aminobutyric acid type B receptor subunit 1 (Homo sapiens, UniProt Q9UBS5)
[9] = molecular target: 5-hydroxytryptamine receptor 5A (Homo sapiens, UniProt P47898)
[10] = molecular target: Rod cGMP-specific 3',5'-cyclic phosphodiesterase subunit alpha (Homo sapiens, UniProt P16499); format: functional
Further: assay procedure not described here.

Sequence of Rod cGMP-specific 3',5'-cyclic phosphodiesterase subunit alpha (P16499 whole entry): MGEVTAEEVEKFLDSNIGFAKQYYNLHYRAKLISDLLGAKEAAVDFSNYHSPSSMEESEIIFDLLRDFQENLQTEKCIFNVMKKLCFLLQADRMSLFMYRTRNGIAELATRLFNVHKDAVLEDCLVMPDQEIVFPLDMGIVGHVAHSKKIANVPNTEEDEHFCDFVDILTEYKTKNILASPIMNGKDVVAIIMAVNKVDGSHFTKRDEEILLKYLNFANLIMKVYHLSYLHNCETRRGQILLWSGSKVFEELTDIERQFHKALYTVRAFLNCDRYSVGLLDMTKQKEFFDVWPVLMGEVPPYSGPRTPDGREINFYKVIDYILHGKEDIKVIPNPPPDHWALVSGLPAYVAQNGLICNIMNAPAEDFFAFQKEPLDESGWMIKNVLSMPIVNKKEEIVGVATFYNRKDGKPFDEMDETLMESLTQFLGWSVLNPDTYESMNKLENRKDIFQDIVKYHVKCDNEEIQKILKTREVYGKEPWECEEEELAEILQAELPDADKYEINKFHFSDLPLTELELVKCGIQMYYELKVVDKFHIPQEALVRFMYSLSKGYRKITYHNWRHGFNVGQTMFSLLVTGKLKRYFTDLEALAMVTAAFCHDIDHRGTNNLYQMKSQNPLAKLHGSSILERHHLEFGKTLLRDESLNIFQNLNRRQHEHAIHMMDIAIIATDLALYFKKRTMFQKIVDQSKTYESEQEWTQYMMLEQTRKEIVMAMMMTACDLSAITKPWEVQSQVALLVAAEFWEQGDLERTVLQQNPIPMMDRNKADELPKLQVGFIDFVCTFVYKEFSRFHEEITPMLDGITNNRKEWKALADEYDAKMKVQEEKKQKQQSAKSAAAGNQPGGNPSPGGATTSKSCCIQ
Sequence of 5-hydroxytryptamine receptor 5A (P47898 whole entry): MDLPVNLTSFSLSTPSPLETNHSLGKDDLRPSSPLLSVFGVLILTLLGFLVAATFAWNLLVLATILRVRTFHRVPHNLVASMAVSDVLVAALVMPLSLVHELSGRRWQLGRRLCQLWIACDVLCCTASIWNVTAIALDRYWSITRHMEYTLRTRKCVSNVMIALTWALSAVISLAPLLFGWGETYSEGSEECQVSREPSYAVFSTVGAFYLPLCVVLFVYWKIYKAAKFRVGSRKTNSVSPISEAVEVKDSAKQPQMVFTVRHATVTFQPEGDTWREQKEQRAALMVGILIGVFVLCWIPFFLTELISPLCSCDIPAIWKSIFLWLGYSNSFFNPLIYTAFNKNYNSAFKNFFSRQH
Sequence of Gamma-aminobutyric acid type B receptor subunit 1 (Q9UBS5 whole entry): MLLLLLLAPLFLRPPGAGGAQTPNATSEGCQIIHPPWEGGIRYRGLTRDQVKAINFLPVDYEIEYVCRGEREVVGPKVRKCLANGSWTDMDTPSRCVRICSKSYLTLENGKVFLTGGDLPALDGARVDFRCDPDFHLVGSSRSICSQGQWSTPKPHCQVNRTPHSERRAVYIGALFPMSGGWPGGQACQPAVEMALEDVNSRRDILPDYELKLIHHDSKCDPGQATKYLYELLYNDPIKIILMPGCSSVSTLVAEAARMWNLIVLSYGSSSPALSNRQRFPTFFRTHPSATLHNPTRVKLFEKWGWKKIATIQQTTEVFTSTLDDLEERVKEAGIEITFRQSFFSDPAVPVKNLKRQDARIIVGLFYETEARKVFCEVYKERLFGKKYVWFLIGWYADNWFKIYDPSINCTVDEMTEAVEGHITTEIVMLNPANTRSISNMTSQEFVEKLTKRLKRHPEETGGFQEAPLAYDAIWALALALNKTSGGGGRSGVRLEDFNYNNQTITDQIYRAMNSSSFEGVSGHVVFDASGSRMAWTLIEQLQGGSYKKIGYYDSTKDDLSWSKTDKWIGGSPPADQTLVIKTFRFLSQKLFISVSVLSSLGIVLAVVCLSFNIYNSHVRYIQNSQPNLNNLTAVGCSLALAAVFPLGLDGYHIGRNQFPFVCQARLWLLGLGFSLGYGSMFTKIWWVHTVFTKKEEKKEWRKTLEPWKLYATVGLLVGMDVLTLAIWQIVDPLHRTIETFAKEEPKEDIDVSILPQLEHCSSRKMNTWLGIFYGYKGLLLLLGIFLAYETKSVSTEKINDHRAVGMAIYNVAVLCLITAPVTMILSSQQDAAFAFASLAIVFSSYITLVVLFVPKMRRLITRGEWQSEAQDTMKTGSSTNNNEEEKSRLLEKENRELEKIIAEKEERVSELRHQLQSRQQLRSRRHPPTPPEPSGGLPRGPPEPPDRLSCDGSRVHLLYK

AC50 [3] [µM] | AC50 (Bile acid receptor [4]) [µM] | AC50 (Bile acid receptor [5]) [µM] | AC50 [6] [µM] | AC50 [7] [µM] | Structure (SMILES) | AC50 [1] [µM] | AC50 [2] [µM] | AC50 [8] [µM] | AC50 [9] [µM] | AC50 [10] [µM]
 |  |  |  |  | O=C(Nc1cccc2c(=O)cc(-c3nnn[nH]3)oc12)c1ccc(OCCCCc2ccccc2)cc1 | 13.3 | 28 |  |  | 
> 30 | > 30 | 4 | > 30 | > 30 | CC(/C=C1\SC(=S)N(CC(=O)O)C1=O)=C\c1ccccc1 |  |  |  |  | 
> 30 | > 30 | > 30 | > 30 | 18 | CC1(C)S[C@@H]2[C@H](NC(=O)[C@H](N)c3ccc(O)cc3)C(=O)N2[C@H]1C(=O)O [AMOXICILLIN] |  |  | > 10 | > 10 | > 10
 |  |  |  |  | COC(=O)[C@H](c1ccccc1Cl)N1CCc2sccc2C1 [CLOPIDOGREL] |  |  |  | > 10 | > 10
 |  |  |  |  | CCC(=O)O[C@@H](O[P@](=O)(CCCCc1ccccc1)CC(=O)N1C[C@H](C2CCCCC2)C[C@H]1C(=O)O)C(C)C [FOSINOPRIL] | > 30 | > 30 |  |  | 
 |  |  |  |  | Cc1cnc(NC(=O)C2=C(O)c3ccccc3S(=O)(=O)N2C)s1 [MELOXICAM] |  |  | > 10 | > 10 | > 10
 |  |  |  |  | CN(C)c1cc(CNCC(C)(C)C)c(O)c2c1C[C@H]1C[C@H]3[C@H](N(C)C)C(O)=C(C(N)=O)C(=O)[C@@]3(O)C(O)=C1C2=O [OMADACYCLINE] | > 30 | > 30 |  |  | 
 |  |  |  |  | CNC[C@H](O)c1cccc(O)c1 [PHENYLEPHRINE] |  |  | > 10 |  | 
> 30 | > 30 | 27 | > 30 | > 30 | CCOc1cc(CC(=O)N[C@@H](CC(C)C)c2ccccc2N2CCCCC2)ccc1C(=O)O [REPAGLINIDE] |  |  |  |  | 
 |  |  |  |  | CCCCNc1ccc(C(=O)OCCN(C)C)cc1 [TETRACAINE] |  |  | > 10 | > 10 | > 10
 |  |  |  |  | CN1CCN(CCCN2c3ccccc3Sc3ccc(S(=O)(=O)N(C)C)cc32)CC1 [THIOPROPERAZINE] | 0.003 | 3.24 |  |  | 
 |  |  |  |  | CC1(C)O[C@@H]2[C@@H](CO[C@@]3(COS(N)(=O)=O)OC(C)(C)O[C@@H]23)O1 [TOPIRAMATE] |  |  | > 10 |  | 

Structure (SMILES) | AC50 [3] [µM] | AC50 (Bile acid receptor [4]) [µM] | AC50 (Bile acid receptor [5]) [µM] | AC50 [6] [µM] | AC50 [7] [µM] | AC50 [1] [µM] | AC50 [2] [µM] | AC50 [8] [µM] | AC50 [9] [µM] | AC50 [10] [µM]
CNC(=O)c1cc(Oc2ccc(NC(=O)Nc3ccc(Cl)c(C(F)(F)F)c3)c(F)c2)ccn1 [REGORAFENIB] | > 30 | > 30 | > 30 | > 30 | > 30 | > 30 | 2.37 |  |  | 
